Laboratory results published in the supplement of paper PMC11061612.

Columns and labels:
[1] = test system: BV-173 (Chronic Myelogenous Leukemia); experiment: combination Emax (second highest fraction inhibited in the dose matrix, 72 h); higher = more inhibition; extreme values may be limits of the assay
Procedure, shortened: (§1)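 Bliss excess equals the observed combination effect minus the expected value EA + EB − EA·EB, where EA and EB are the effects of each agent alone. Combination Emax is the second-highest inhibition within the matrix. Inhibition was scaled from CellTiter-Glo 2.0 luminescence, with 0 set by vehicle wells and 1 by blank wells, after 72 hours of two-drug dosing of cells plated in 1536-well plates.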

[2] = test system: DG-75 (Burkitt's Lymphoma); experiment: as above
Procedure, shortened: as §1

[3] = test system: HSC-2 (Oral Cavity Carcinoma); experiment: as above
Procedure, shortened: as §1

[4] = test system: OCUM-1 (Gastric Carcinoma); experiment: as above
Procedure, shortened: as §1

IMR-5 (Neuroblastoma) = experiment: as above
Procedure, shortened: as §1

EW-13 (Ewing's Sarcoma) = experiment: as above
Procedure, shortened: as §1

[5] = test system: LC4-1 (B-Lymphoblastic Leukemia); experiment: as above
Procedure, shortened: as §1

[6] = test system: NCI-N87 (Gastric Carcinoma); experiment: Bliss excess, mean over the matrix (fraction); higher = more synergy
Procedure, shortened: as §1

[7] = test system: KYSE-50 (Esophageal Squamous Cell Carcinoma); experiment: as above
Procedure, shortened: as §1

[8] = test system: KP-2 (Pancreatic Carcinoma); experiment: as above
Procedure, shortened: as §1

[9] = test system: MFE-319 (Endometrial Carcinoma); experiment: as above
Procedure, shortened: as §1

[10] = test system: H-EMC-SS (Chondrosarcoma); experiment: as above
Procedure, shortened: as §1

EW-3 (Ewing's Sarcoma) = experiment: as above
Procedure, shortened: as §1

[11] = test system: NCI-H322M (Lung Adenocarcinoma); experiment: as above
Procedure, shortened: as §1

GOTO (Neuroblastoma) = experiment: as above
Procedure, shortened: as §1

[12] = test system: SCC-3 (B-Cell Non-Hodgkin's Lymphoma); experiment: as above
Procedure, shortened: as §1

EW-18 (Ewing's Sarcoma) = experiment: as above
Procedure, shortened: as §1

U-87-MG (Glioblastoma) = experiment: as above
Procedure, shortened: as §1

[13] = test system: HC-1 (Other Blood Carcinomas); experiment: as above
Procedure, shortened: as §1

[14] = test system: SNU-C1 (Colorectal Carcinoma); experiment: as above
Procedure, shortened: as §1

Row | Structure (SMILES) | combination Emax [1] | combination Emax [2] | combination Emax [3] | combination Emax [4] | combination Emax (IMR-5 (Neuroblastoma)) | combination Emax (EW-13 (Ewing's Sarcoma)) | combination Emax [5] | Bliss excess [6] | Bliss excess [7] | Bliss excess [8] | Bliss excess [9] | Bliss excess [10] | Bliss excess (EW-3 (Ewing's Sarcoma)) | Bliss excess [11] | Bliss excess (GOTO (Neuroblastoma)) | Bliss excess [12] | Bliss excess (EW-18 (Ewing's Sarcoma)) | Bliss excess (U-87-MG (Glioblastoma)) | Bliss excess [13] | Bliss excess [14]
1 | NC1(C(=O)N[C@@H](CCO)c2ccc(Cl)cc2)CCN(c2ncnc3[nH]ccc23)CC1 [Capivasertib] + CC(=O)c1c(C)c2cnc(Nc3ccc(N4CCNCC4)cn3)nc2n(C2CCCC2)c1=O [Palbociclib] (first compound max 10 µM, 7x7, partner max 10 µM) | 0.87 | 0.744 | 0.582 | 0.582 | 0.581 | 0.296 | 0.578 | -0.0066 | -0.0129 | -0.0261 | -0.0339 | -0.0375 | 0.0062 | 0.0072 | 0.0599 | 0.0001 | -0.0276 | -0.0097 | -0.0705 | -0.0506
2 | C[C@@H](c1ccc2nccn2c1)n1nnc2ncc(-c3cnn(C)c3)nc21 [Savolitinib] + CC1(C)CCC(CN2CCN(c3ccc(C(=O)NS(=O)(=O)c4ccc(NCC5CCOCC5)c([N+](=O)[O-])c4)c(Oc4cnc5[nH]ccc5c4)c3)CC2)=C(c2ccc(Cl)cc2)C1 [Venetoclax] (first compound max 1 µM, 7x7, partner max 1 µM) | 0.781 | 0.16 | 0.186 | 0.187 | 0.173 | 0.128 | 1 | -0.0341 | -0.0636 | -0.0518 | -0.0764 | -0.0186 | 0.0364 | -0.0536 | -0.0228 | -0.0166 | -0.067 | -0.0699 | -0.0824 | -0.0363
3 | Cn1cnc2c(F)c(Nc3ccc(Br)cc3Cl)c(C(=O)NOCCO)cc21 [Selumetinib] + CCN(CCO)CCCOc1ccc2c(Nc3cc(CC(=O)Nc4cccc(F)c4)[nH]n3)ncnc2c1 [AZD2811] (first compound max 10 µM, 7x7, partner max 1 µM) | 0.952 | 0.265 | 0.376 | 0.93 | 1 | 0.218 | 0.891 | -0.0173 | 0.005 | 0.0449 | -0.0736 | -0.0233 | -0.0112 | -0.0069 | -0.0175 | 0.11 | -0.0241 | -0.0443 | 0.0547 | -0.0494
4 | CN(CCO)CC[C@H](CSc1ccccc1)Nc1ccc(S(=O)(=O)NC(=O)c2ccc(N3CCC([C@@H](O)c4ccccc4-c4ccc(Cl)cc4)CC3)cc2)cc1S(=O)(=O)C(F)(F)F [AZD4320] + CN(C)CCCOc1ccc(-c2ccc3ncc4c(c3c2)n(C2CCOCC2)c(=O)n4C)cn1 [AZD0156] (first compound max 1 µM, 7x7, partner max 1 µM) | 0.95 | 0.336 | 0.269 | 0.734 | 0.608 | 0.636 | 1 | -0.0474 | -0.0341 | -0.0444 | -0.0009 | -0.0374 | 0.0012 | -0.0432 | -0.0041 | 0.0226 | 0.0042 | -0.0331 | -0.0813 | -0.0283
5 | CS(=O)(=O)CCNCc1ccc(-c2ccc3ncnc(Nc4ccc(OCc5cccc(F)c5)c(Cl)c4)c3c2)o1 [Lapatinib] + C[C@@H](Oc1cc(-c2cnn(C3CCNCC3)c2)cnc1N)c1c(Cl)ccc(F)c1Cl [Crizotinib] (first compound max 10 µM, 7x7, partner max 10 µM) | 0.94 | 0.92 | 0.998 | 0.596 | 0.976 | 0.285 | 0.963 | -0.0456 | -0.0352 | -0.0353 | -0.0205 | -0.0192 | -0.0505 | 0.0188 | -0.0499 | 0.0226 | -0.0533 | -0.0302 | -0.0124 | -0.0359
6 | Cc1c2c(nn1C)CSCc1cc(n(C)n1)CSc1cc(c3ccccc3c1)OCCCc1c(C(=O)O)n(C)c3c-2c(Cl)ccc13 [AZD5991] + C[C@@H](Nc1cc(F)cc(F)c1)c1cc(C(=O)N(C)C)cc2c(=O)cc(N3CCOCC3)oc12 [AZD8186] (first compound max 1 µM, 7x7, partner max 3 µM) | 0.93 | 0.219 | 0.963 | 0.137 | 0.955 | 0.454 | 0.949 | -0.0181 | 0.0319 | 0.0193 | 0.0209 | -0.0325 | -0.0129 | 0.0225 | -0.0589 | -0.0036 | 0.0122 | -0.097 | 0.0381 | -0.0148
7 | CN(CCO)CC[C@H](CSc1ccccc1)Nc1ccc(S(=O)(=O)NC(=O)c2ccc(N3CCC([C@@H](O)c4ccccc4-c4ccc(Cl)cc4)CC3)cc2)cc1S(=O)(=O)C(F)(F)F [AZD4320] + Cc1cc2ncnn2cc1Nc1ncc2c(n1)n(C1CCOCC1)c(=O)n2C [AZD7648] (first compound max 1 µM, 7x7, partner max 10 µM) | 0.961 | 0.472 | 0.461 | 0.744 | 0.738 | 0.672 | 1 | -0.0695 | -0.0198 | -0.0338 | -0.0557 | -0.0218 | 0.015 | -0.0426 | 0.075 | -0.0018 | -0.0372 | -0.0503 | 0.0352 | -0.0376
8 | CC1(C)CCC(CN2CCN(c3ccc(C(=O)NS(=O)(=O)c4ccc(NCC5CCOCC5)c([N+](=O)[O-])c4)c(Oc4cnc5[nH]ccc5c4)c3)CC2)=C(c2ccc(Cl)cc2)C1 [Venetoclax] + C[C@@H]1COCCN1C2=NC(=NC(=C2)C3(CC3)[S@](=N)(=O)C)C4=C5C=CNC5=NC=C4 [AZD6738] (first compound max 1 µM, 7x7, partner max 10 µM) | 0.954 | 0.781 | 0.824 | 0.672 | 1 | 0.671 | 1 | -0.0232 | -0.0492 | -0.0225 | -0.0494 | -0.0416 | 0.0185 | -0.0433 | -0.039 | 0.013 | -0.0293 | -0.0487 | 0.0289 | -0.124
9 | COc1nnc2ccc(N3CCC(c4ccc(OCCN5CCN(C)C(=O)[C@H]5C)cc4)CC3)nn12 [AZD5153] + CC1(C)CCC(CN2CCN(c3ccc(C(=O)NS(=O)(=O)c4ccc(NCC5CCOCC5)c([N+](=O)[O-])c4)c(Oc4cnc5[nH]ccc5c4)c3)CC2)=C(c2ccc(Cl)cc2)C1 [Venetoclax] (first compound max 1 µM, 7x7, partner max 1 µM) | 0.921 | 0.887 | 0.662 | 0.567 | 0.885 | 0.481 | 1 | -0.0978 | -0.0591 | -0.0381 | -0.124 | -0.0508 | -0.0801 | -0.076 | -0.065 | -0.0213 | -0.0371 | -0.0343 | 0.0089 | -0.061
10 | CC1(C)CCC(CN2CCN(c3ccc(C(=O)NS(=O)(=O)c4ccc(NCC5CCOCC5)c([N+](=O)[O-])c4)c(Oc4cnc5[nH]ccc5c4)c3)CC2)=C(c2ccc(Cl)cc2)C1 [Venetoclax] + Cc1cc2ncnn2cc1Nc1ncc2c(n1)n(C1CCOCC1)c(=O)n2C [AZD7648] (first compound max 1 µM, 7x7, partner max 10 µM) | 0.811 | 0.317 | 0.304 | 0.216 | 0.282 | 0.0496 | 1 | -0.0609 | 0.0065 | -0.0577 | -0.0442 | -0.0179 | 0.0149 | -0.0397 | -0.0442 | -0.0016 | 0.0188 | -0.0832 | -0.02 | -0.0259
11 | Cc1c2c(nn1C)CSCc1cc(n(C)n1)CSc1cc(c3ccccc3c1)OCCCc1c(C(=O)O)n(C)c3c-2c(Cl)ccc13 [AZD5991] + C=CCn1c(=O)c2cnc(Nc3ccc(N4CCN(C)CC4)cc3)nc2n1-c1cccc(C(C)(C)O)n1 [AZD1775] (first compound max 1 µM, partner max 1 µM) | 0.942 | 0.92 | 0.853 | 0.38 | 1 | 0.388 | 0.986 | -0.0275 | -0.0042 | 0.0069 | 0.0074 | 0.0071 | 0.017 | -0.023 | -0.0513 | 0.0088 | -0.0102 | 0.0392 | 0.0432 | -0.0839
12 | CN(CCO)CC[C@H](CSc1ccccc1)Nc1ccc(S(=O)(=O)NC(=O)c2ccc(N3CCC([C@@H](O)c4ccccc4-c4ccc(Cl)cc4)CC3)cc2)cc1S(=O)(=O)C(F)(F)F [AZD4320] + C[C@@H](Nc1cc(F)cc(F)c1)c1cc(C(=O)N(C)C)cc2c(=O)cc(N3CCOCC3)oc12 [AZD8186] (first compound max 1 µM, 7x7, partner max 3 µM) | 0.971 | 0.286 | 0.897 | 0.884 | 1 | 0.911 | 1 | 0.0029 | 0.0097 | 0.0419 | 0.0048 | -0.0277 | -0.0324 | 0.0489 | 0.0279 | 0.0118 | 0.0747 | 0.0472 | 0.0252 | -0.0417
